This passage reports IC50 results from US8378104B2 (OSI Pharmaceuticals, LLC, priority 2010, dated 2013).

The target in one test is T1, TAK1-TAB1 fusion protein (Homo sapiens, UniProt O43318).
T1 construct: purchased Carna
T1 sequence (O43318 with tags, fused parts or gaps limits assumed): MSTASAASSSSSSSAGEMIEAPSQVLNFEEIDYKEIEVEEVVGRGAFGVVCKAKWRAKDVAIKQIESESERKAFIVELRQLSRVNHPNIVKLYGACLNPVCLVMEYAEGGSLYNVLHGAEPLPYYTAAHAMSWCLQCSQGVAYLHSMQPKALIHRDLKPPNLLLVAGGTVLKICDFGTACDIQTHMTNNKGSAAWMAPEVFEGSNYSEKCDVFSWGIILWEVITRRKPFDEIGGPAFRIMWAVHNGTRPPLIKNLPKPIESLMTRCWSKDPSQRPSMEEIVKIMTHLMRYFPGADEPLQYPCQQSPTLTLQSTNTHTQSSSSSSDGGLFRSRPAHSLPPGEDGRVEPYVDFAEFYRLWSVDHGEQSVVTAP
Put plainly: TAK1 biochemical assay (AlphaScreen, GST-MAP2K7 substrate). The conditions noted are these: TAK1-TAB1 fusion protein, GST-MAP2K7 substrate; read-out: mean TAK1 IC50 (Col. A).

The subject of a further test is pJNK in HCT-116 cells. As to the kind of experiment: Phospho-JNK (Thr183/Tyr185) Meso Scale ELISA assay, TNFα-stimulated HCT-116 cells. In kind it is cell-based. The conditions noted are these: Homo sapiens, read-out: mean HCT-116 pJNK ELISA IC50 (Col. B). As for the experimental part: Detailed below are ELISA assays for pJNK and p38, and a TAK1 biochemical assay. […] In Table 1, Col.
Phospho-JNK (Thr183/Tyr185) Meso Scale ELISA Assay
• 1. Plate HCT-116 cells at 25,000 per well in 100 uL in 96 well clear dishes in normal growth medium. Day 2: • 1. Aspirate medium and replace with 90 μl reduced serum growth medium (1% FCS), incubate for 2 hours at 37° C. • 2. Make drugs at 10× in reduced serum medium and add 10 uL per well. • 3. Incubate at 37° C. for 4 hrs. • 4. Bring capture plates to room temperature. • 5. Block with 150 μl Blocking Solution (provided with kit) (600 mg Blocker A into 20 mL 1× Wash Buffer per plate) at room temperature with shaking. • 6. Wash plates 4× with 200 μl 1× wash buffer (10× provided with kit) before transferring lysates. • 7. Dilute TNFα to […] in reduced serum medium (this makes a 10× working stock). • 8. Add 10 μl TNFα to all wells except negative control wells, final concentration is 10 ng/mL. • 9. Incubate at 37° C. for 10 minutes. • 10. Remove medium by flicking into sink • 11. Wash cells with 100 uL ice cold PBS. • 12. Remove PBS by flicking into sink and patting on paper towels. • 13. Lyse cells in 50 μl ice cold 1× Complete Lysis Buffer plus Phosphatase and Protease inhibitors (all provided with kit) (10 mL Tris Lysis Buffer+200 μl Protease inhibitor solution+100 μl Phosphatase inhibitor I+100 μl Phosphatase inhibitor II). • 14. Incubate with shaking at 4° C. for 30 minutes. • 15. Transfer 45 μl to capture plate, cover with adhesive cover, and incubate at 4° C. over night with shaking. • Day 3: • 1. Wash plates 4× with 200 μl 1× wash buffer (10× provided with kit). • 2. […] Incubate at room temperature with shaking for 1 hour. • 4. Wash 4× with 200 μl 1× Wash Buffer. • 5. […] Read on Sector Imager. Phospho-p38 Meso Scale ELISA Assay Day 1: • 1. Plate HCT-116 cells at 25,000 per well in 100 uL in 96 well clear dishes in normal growth medium. zday 2: • 1. Aspirate medium and replace with 90 μl reduced serum growth medium (1% FCS), incubate for 2 hours at 37° C. • 2. Make drugs at 10× in reduced serum medium and add 10 uL per well. • 3. Incubate at 37° C. for 4 hrs. • 4. Bring capture plates to room temperature. • 5. Block with 150 μl Blocking Solution (provided with kit) (600 mg Blocker A into 20 mL 1× Wash Buffer per plate) at room temperature with shaking. • 6. Wash plates 4× with 200 μl 1× wash buffer (10× provided with kit) before transferring lysates. • 7. Dilute TNFα to […] in reduced serum medium (this makes a 10× working stock). • 8. Add 10 μl TNFα to all wells except negative control wells, final concentration is 10 ng/mL. • 9. Incubate at 37° C. for 10 minutes. • 10. Remove medium by flicking into sink • 11. Wash cells with 100 uL ice cold PBS. • 12. Remove PBS by flicking into sink and patting on paper towels. • 13. Lyse cells in 50 μl ice cold 1× Complete Lysis Buffer plus phosphatase and protease inhibitors (all provided with kit) (10 mL Tris Lysis Buffer+200 μl Protease inhibitor solution+100 μl Phosphatase inhibitor I+100 μl Phosphatase inhibitor II). • 14. Incubate with shaking at 4° C. for 30 minutes. • 15. Dilute lysates before transferring to capture plate with 100 μl Complete p38 Lysate • Dilution Buffer (provided with kit) (10 mL of Diluent 20±200 μl Protease inhibitor solution+100 μl Phosphatase inhibitor I+100 μl Phosphatase inhibitor II). • 16. Transfer 50 μl of diluted lysates to capture plate, cover with adhesive cover, and incubate at 4° C. over night with shaking. Day 3: • 1. Wash plates 4× with 200 μl 1× wash buffer (10× provided with kit). • 2. […] Incubate at room temperature with shaking for 1 hour. • 4. Wash 4× with 200 μl 1× Wash Buffer. • 5. […] Read on Sector Imager. TAK1 Biochemical Assay

pIC50: −log10 of the molar value. Counter-ions that a name gives are not always drawn. Where only a bound is given, the exact number is not on record here.

As to `Nc1ncc(-c2cnn(C3CCN(C(=O)Nc4cccc5c4CCCC5)CC3)c2)c2cc(-c3cccc4cnsc34)oc12` [Example 340, 4-[4-(7-amino-2-benzo[d]isothiazol-7-yl-furo[2,3-c]pyridin-4-yl)-pyrazol-1-yl]-piperidine-1-carboxylic acid (5,6,7,8-tetrahydro-naphthalen-1-yl)-amide], the pIC50 at TAK1-TAB1 fusion protein and in the test with pJNK in HCT-116 cells was 6.00 to 7.00 each time.
Regarding `CC(C)(O)C#Cc1sc2cnccc2c1-c1cc2c(-c3cnn([C@H]4CC[C@H](O)CC4)c3)cnc(N)c2o1` [Example 271, trans-4-(4-{7-amino-2-[2-(3-hydroxy-3-methylbut-1-yn-1-yl)thieno[2,3-c]pyridin-3-yl]furo[2,3-c]pyridin-4-yl}-1H-pyrazol-1-yl)cyclohexanol trifluoroacetate], the figures for the negative logarithm of the IC50 (pIC50) on TAK1-TAB1 fusion protein and in the test on pJNK in HCT-116 cells were 6.00 to 7.00 and 5.00 to 6.00, respectively.
As for `Nc1ncc(-c2cnn(C3CCN(C(=O)CCN4CCCCC4)CC3)c2)c2cc(-c3csc4cnccc34)oc12` [Example 332, 1-{4-[4-(7-amino-2-thieno[2,3-c]pyridin-3-yl-furo[2,3-c]pyridin-4-yl)-pyrazol-1-yl]-piperidin-1-yl}-3-piperidin-1-yl-propan-1-one], the pIC50 at TAK1-TAB1 fusion protein is greater than 7.00; with pJNK in HCT-116 cells, 6.00 to 7.00.
On the same counts, the results for `CC(C)(C)OC(=O)N1[C@@H]2CC[C@H]1C[C@H](n1cc(-c3cnc(N)c4oc(-c5cccc6cnsc56)cc34)cn1)C2` [Example 301, tert-butyl (3-exo)-3-{4-[7-amino-2-(1,2-benzisothiazol-7-yl)furo[2,3-c]pyridin-4-yl]-1H-pyrazol-1-yl}-8-azabicyclo[3.2.1]octane-8-carboxylate] are 6.00 to 7.00 and 6.00 to 7.00.
With `Nc1ncc(-c2cnn([C@@H]3C[C@H]4CC[C@@H](C3)N4)c2)c2cc(-c3csc4cnccc34)oc12` [Example 320, 4-{1-[(3-exo)-8-azabicyclo[3.2.1]oct-3-yl]-1H-pyrazol-4-yl}-2-(thieno[2,3-c]pyridin-3-yl)furo[2,3-c]pyridin-7-amine], the figures for the pIC50 on TAK1-TAB1 fusion protein and in the test on pJNK in HCT-116 cells were greater than 7.00 and 6.00 to 7.00, respectively.
With `CNc1ncc(-c2cnn(C3CCN(C(C)=O)CC3)c2)c2cc(-c3cccc4nnsc34)oc12` [Example 278, 1-(4-{4-[2-(1,2,3-benzothiadiazol-7-yl)-7-(methylamino)furo[2,3-c]pyridin-4-yl]-1H-pyrazol-1-yl}piperidin-1-yl)ethanone], the pIC50 at TAK1-TAB1 fusion protein and with pJNK in HCT-116 cells was greater than 7.00 in each case.
In the case of `CC(=O)N1[C@@H]2CC[C@H]1C[C@H](n1cc(-c3cnc(N)c4oc(-c5cccc6cnsc56)cc34)cn1)C2` [Example 327, 1-[(3-exo)-3-{4-[7-amino-2-(1,2-benzisothiazol-7-yl)furo[2,3-c]pyridin-4-yl]-1H-pyrazol-1-yl}-8-azabicyclo[3.2.1]oct-8-yl]ethanone], the pIC50 at TAK1-TAB1 fusion protein and with pJNK in HCT-116 cells was greater than 7.00 throughout.
For the molecule `COCc1nc2cccc(-c3cc4c(-c5cnn([C@H]6CC[C@H](O)CC6)c5)cnc(N)c4o3)c2s1` [Example 349, trans-4-(4-{7-amino-2-[2-(methoxymethyl)-1,3-benzothiazol-7-yl]furo[2,3-c]pyridin-4-yl}-1H-pyrazol-1-yl)cyclohexanol Trifluoroacetate (salt)], the negative-log IC50 (pIC50) on TAK1-TAB1 fusion protein and in the test on pJNK in HCT-116 cells was greater than 7.00 throughout.
In the case of `CNc1ncc(-c2cnn([C@H]3CC[C@H](O)CC3)c2)c2cc(-c3cccc4nnsc34)oc12` [Example 284, trans-4-{4-{2-[2-(1,2,3-benzothiadiazol-7-yl)-7-(methylamino)furo[2,3-c]pyridin-4-yl]-1H-pyrazol-1-yl}cyclohexanol formate salt], the pIC50 at TAK1-TAB1 fusion protein and with pJNK in HCT-116 cells was greater than 7.00 each time.
For the molecule `CC(=O)N1CCC(n2cc(-c3cnc(N)c4oc(-c5csc6cnc(Cl)cc56)cc34)cn2)CC1` [Example 246, 1-(4-{4-[7-amino-2-(5-chlorothieno[2,3-c]pyridin-3-yl)furo[2,3-c]pyridin-4-yl]-1H-pyrazol-1-yl}piperidin-1-yl)ethanone bis(trifluoroacetate)], the pIC50 on TAK1-TAB1 fusion protein and with pJNK in HCT-116 cells was 6.00 to 7.00 each time.
As to `Nc1ncc(-c2cnn([C@H]3CC[C@H](O)CC3)c2)c2c(Cl)c(-c3cccc4ncsc34)oc12` [Example 288, trans-4-{4-[7-amino-2-(1,3-benzothiazol-7-yl)-3-chlorofuro[2,3-c]pyridin-4-yl]-1H-pyrazol-1-yl}cyclohexanol], the pIC50 on TAK1-TAB1 fusion protein and in the test with pJNK in HCT-116 cells was greater than 7.00 each time.
Take `CC(C)(C)OC(=O)N1[C@@H]2CC[C@H]1C[C@H](n1cc(-c3cnc(N)c4oc(-c5csc6cnccc56)cc34)cn1)C2` [Example 299, tert-butyl (3-exo)-3-{4-[7-amino-2-(thieno[2,3-c]pyridin-3-yl)furo[2,3-c]pyridin-4-yl]-1H-pyrazol-1-yl}-8-azabicyclo[3.2.1]octane-8-carboxylate]: the pIC50 on TAK1-TAB1 fusion protein and with pJNK in HCT-116 cells was 6.00 to 7.00 each time.
In the case of `CNc1nc2cccc(-c3cc4c(-c5cnn([C@H]6CC[C@H](O)CC6)c5)cnc(N)c4o3)c2s1` [Example 351, trans-4-(4-{7-amino-2-[2-(methylamino)-1,3-benzothiazol-7-yl]furo[2,3-c]pyridin-4-yl}-1H-pyrazol-1-yl)cyclohexanol Trifluoroacetate (Salt)], the negative-log IC50 (pIC50) on TAK1-TAB1 fusion protein and in the test with pJNK in HCT-116 cells was greater than 7.00 in each case.
As for `CC(=O)N1CCC(n2cc(-c3cnc(N)c4oc(-c5nn(C)c6cnccc56)cc34)cn2)CC1` [Example 363, 1-(4-{4-[7-amino-2-(1-methyl-1H-pyrazolo[3,4-c]pyridin-3-yl)furo[2,3-c]pyridin-4-yl]-1H-pyrazol-1-yl}piperidin-1-yl)ethanone trifluoroacetic acid salt], the negative logarithm of the IC50 (pIC50) is greater than 7.00 at TAK1-TAB1 fusion protein and 6.00 to 7.00 in the test on pJNK in HCT-116 cells.
With `CC(=O)N1CCC(n2cc(-c3cnc(N)c4oc(-c5csc6cnncc56)cc34)cn2)CC1` [Example 261, 1-(4-{4-[7-amino-2-(thieno[2,3-d]pyridazin-3-yl)furo[2,3-c]pyridin-4-yl]-1H-pyrazol-1-yl}piperidin-1-yl)ethanone diformate], the pIC50 on TAK1-TAB1 fusion protein is greater than 7.00; with pJNK in HCT-116 cells, 6.00 to 7.00.
For the molecule `CC(=O)N1CCC(n2cc(-c3cnc(N)c4oc(-c5ccc(F)c6cnsc56)cc34)cn2)CC1` [Example 223, 1-(4-{4-[7-amino-2-(4-fluoro-1,2-benzothiazol-7-yl)furo[2,3-c]pyridin-4-yl]-1H-pyrazol-1-yl}piperidin-1-yl)ethanone diformate salt], the pIC50 at TAK1-TAB1 fusion protein and with pJNK in HCT-116 cells was 6.00 to 7.00 throughout.
